In publication PMC11784013, “Potassium molybdate blocks APN-dependent coronavirus entry by degrading receptor via PIK3C3-mediated autophagy” (Journal of Virology, 2024):
Entries after “also recorded” stand apart in the source; their conditions may differ.

What was measured:
[1] = system: PRCV; assay: PRCV infection of ST cells (RT-qPCR, TCID50, western blot, IFA); type: cell-based, porcine respiratory coronavirus; conditions: PRCV 0.1 MOI; for PRCV N level, western blot, relative to WT without PM (=1): PM 10 mM, 16 h
Protocol: Fig 1 PM inhibits TGEV and PRCV infection in ST cells. (A) A cytotoxicity assay of PM in ST cells. ST cells cultured in a 96-well plate were incubated with different concentrations of PM for 24 h, which was tested by Cell Counting Kit 8. (B) Time course for PM inhibiting TGEV or PRCV or PEDV infection assay. (C–F) The ST cells, pretreated with PM at the indicated concentrations for 1 h were infected with TGEV Miller (0.1 MOI) or PRCV (0.1 MOI) for 1 h and were again treated with PM at 37°C for 17 h. The cell samples were collected and examined by real-time quantitative PCR (RT-qPCR), TCID50, western blot (C and D), and immunofluorescence assay (IFA) (E and F), scale bar: 50 µm. (G) Vero-E6 cells were treated with indicated PM and infected with PEDV LJX 01/2014 according to the time course of Fig. 1B, which was detected by TCID50 and western blot. Results are presented as mean ± SD of data from three independent experiments. ns, no significant; **, P ≤ 0.01; ***, P ≤ 0.001.
Fig 3 PM inhibits TGEV and PRCV infection by potassium ion and molybdate synergy. (A and B) The ST cells, pretreated with potassium chloride (KCl) or sodium molybdate (Na2MoO4) at the indicated concentrations for 1 h were infected with TGEV Miller (0.1 MOI) for 1 h and were again treated with KCl or Na2MoO4 at 37°C for 17 h. The cell samples were measured by RT-qPCR. (C and D) ST cells were treated with PM (K2MoO4, 10 mM), KCl (20 mM), Na2MoO4 (10 mM), sodium chloride (NaCl, 10 mM), K2MoO4 (10 mM), and NaCl (20 mM) as well as Na2MoO4 (10 mM) and KCl (20 mM) for 1 h and then infected with TGEV Miller (0.1 MOI) or PRCV (0.1 MOI) for 17 h, which was determined by RT-qPCR and TCID50. Results are presented as mean ± SD of data from three independent experiments. ***, P ≤ 0.001; ns, no significance.
Total RNA was extracted using RNAiso reagent (TaKaRa, Japan, 9109) and reverse transcribed into cDNA using HiScript Q RT SuperMix for qPCR (Vazyme, China, R223-01), both of which followed the manufacturer’s recommendations. The TGEV and PRCV virus copy numbers were detected by the TaqMan probe-based RT-qPCR method developed previously in our laboratory ([59]). Relative qPCR was also performed using ChamQ SYBR qPCR master mix (Vazyme, China, Q311-02), and the results were calculated via the 2^-ΔΔCT method.
Fig. S8. PM inhibits PRCV infection by degrading APN via PIK3C3-mediated autophagy. (A-C) WT ST cells and PIK3C3 KO ST cells were treated with PM (10 mM) and infected with PRCV (0.1 MOI) for 16 h. Then the APN, PIK3C3, ATG14, BECN1, P62, PRCV N and LC3 were detected by western blot (A), and viral titers and PRCV N mRNA level were determined by TCID50 (B) and RT-qPCR (C) . (D-F) WT ST cells and PIK3C3 KO ST cells transfected with pCMV-Myc and pCMV-Myc-PIK3C3 respectively for 24 h were treated with PM (10 mM) and infected with PRCV (0.1 MOI) for 16 h. The APN, PIK3C3, P62, PRCV N and LC3 were determined by western blot (D). TCID50 (E) and RT-qPCR (F) were performed to detect viral titers and PRCV N m RNA level. All western blot results were calculated by Image J. Results are presented as mean ± SD of data from three independent experiments (also on this page, place not known: 6 8 10 12 Viral load(log copies/ul) *** 2 4 6 8 log10 TCID50/ml *** 6 8 10 12 + Viral load(log copies/ul) PIK3C3-Myc + - + + + *** *** 2 4 6 8 log10 TCID50/ml *** + + + + PIK3C3-Myc - - - + - + + + *** WT KO PM (C). WT KO PM PRCV PM - + + PRCV + + + WT PIK3C3 KO PIK3C3 PRCV PIK3C3-Myc - - - + PM - + + + PRCV + + + + WT PIK3C3 KO 0 0) […]

[2] = system: PDCoV; assay: PDCoV infection of PK1 cells (RT-qPCR); type: cell-based; conditions: PM 10 mM, PDCoV 0.1 MOI, 17 h
Protocol: Fig. S1. […] (A) The PK1 cells, pretreated with PM (10mM) concentrations for 1 h were infected with PDCoV (0.1 MOI) for 1 h and were again treated with PM at 37 °C for 17 h.
The cell samples were collected and examined by RT-qPCR . Results are presented as mean ± SD of data from three independent experiments ***, P≤ 0.001.
(also on this page, place not known: RT-qPCR. + - + + 2 3 4 5 6Viral load(log copies/ul) *** PDCoV PM PDCoV M)
(1 picture or pasted object on this page, not shown here)

[K+].[K+].[O]=[Mo](=[O])([O-])[O-] [PM, potassium molybdate]
PRCV N level, western blot, relative to WT without PM (=1) ([1]; Fig. S8A, PIK3C3 KO ST cells): 0.81
PRCV N level, western blot, relative to WT without PM (=1) ([1]; Fig. S8A, WT ST cells): 0
PRCV N level, western blot, relative to WT without PM (=1) ([1]; Fig. S8D, PIK3C3 KO ST cells with PIK3C3-Myc): 0
PRCV N level, western blot, relative to WT without PM (=1) ([1]; Fig. S8D, PIK3C3 KO ST cells without PIK3C3-Myc): 0.78
PRCV N level, western blot, relative to WT without PM (=1) ([1]; Fig. S8D, WT ST cells with pCMV-Myc): 0
PRCV infection ([1]; ST cells, PM 1 h pretreatment and 17 h after infection, RT-qPCR, TCID50, western blot, IFA): effectively restricted
PDCoV infection [2]: inhibits PDCoV infection; also recorded: effectively restricted
